Results as given in patent EP1650209A1, “Griseusin derivatives and their use as antitumor agents” (Oncotest GmbH, priority 2004, dated 2006).
In brackets after ≈: the same amount, converted by molar mass.

Key:
Experiment in all cases: Clonogenic assay, colony formation of tumor stem cells from xenografts
Assay type in all cases: cell-based, human
[1] = test system: LXFA 289; details: Lung, non small cell, xenograft LXFA 289, colony formation
Experimental: (§1) Using various human cancer xenografts in vitro, the concentrations of compound B which inhibit formation of tumor colonies of tumor stem cells by 50% (IC50) and 70% (IC70) are determined in a clonogenic assay. Specifically, each solid tumor of bladder cancer (BXF 1036 and BXF 1299), cervical cancer (CEXF 633 and CEXF 773), colic cancer (CXF 1103, CXF 158, CXF 1729, CXF 264 and CXF 280), gastric cancer (GXF 251 and GXF 97), head and neck cancer (HNXF 536), liver cancer (LIXF 575), non small cell lung cancer comprising adeno, squamous epithelium and large cell carcinoma (LXFA 1012, LXFA 289, LXFA 297, LXFA 526, LXFA 592, LXFA 629, LXFA 677, LXFE 409, LXFL 1072, LXFL 430LX and LXFL 529), small cell lung cancer (LXFS 650), mammary cancer (MAXF 1162, MAXF 1384, MAXF 401, MAXF 449, MAXF 574, MAXF 583, MAXF 713 and MAXF 857), melanoma (MEXF 1341, MEXF 462, MEXF 535 and MEXF 989), ovary cancer (OVXF 899), pancreatic cancer (PAXF 546 and PAXF 736), prostate cancer (DU-145 and PC3M), pleuramesothelioma (PXF 1752), renal cancer (RXF 1220, RXF 1393, RXF 393, RXF 631 and RXF 944LX), and sarcoma (SXF 1301 and SXF 463) engrafted on RPMI nu/nu thymus aplastic nude mice were explanted, disaggregated by mincing and enzymatic digestion for 50 minutes using 125 U/mL DNAse I, 41 U/mL collagenase IV, 100 U/ml hyaluronidase III, and 1 U/mL dispase I, and passed through sieves of 200 µm and 50 µm mesh size and washed twice with sterile PBS-buffer to remove cell aggregated from single cells. The clonogenic assay was performed in a 24 multiwell format. Each of the resulting single cell suspensions was added at a density of 2·10^4 to 6·10^4 cells per well to 0.2 ml of Iscove's Modified Dulbecco's Medium (IMDM) containing 20% fetal calf serum and 0.01% gentamicin supplemented with 0.4% (w/v) agar, and plated onto a bottom layer consisting of the same culture medium containing 0.75% (w/v) agar. After 24 hours IMDM containing 20% fetal calf serum and 0.01 % gentamicin, together with a test compound, was added there to. Then, the plate was incubated at 37°C for 10 to 20 days in a humidified atmosphere of air containing 7.5% CO2. Within this period, in vitro tumor growth led to the formation of colonies with a diameter of > 50µm. Colony counts were performed with an automatic image analysis system (OMNICON 3600). 24 hours prior to evaluation, vital colonies were stained with a vital staining dye. Therefore, 100 µl of a sterile aqueous solution of 2-(4-iodophenyl)-3-(4-nitrophenyl)-5-phenyltetrazolium chloride (1 mg/ml) were added to each well of the plate, and plates were incubated for 24 hours at 37°C in a humidified atmosphere of air containing 7.5% CO2. Inhibition of colony formation was expressed as test versus untreated control (T/C-value [%]). IC50 and IC70 values were determined by plotting compound concentration versus cell viability. Table 3: Inhibition of Colony Formation of Tumor Stem Cells by griseusin derivative B

[2] = test system: CXF 1729; details: Colon, xenograft CXF 1729, colony formation
Experimental: as §1

[3] = test system: LXFA 1012; details: Lung, non small cell, xenograft LXFA 1012, colony formation
Experimental: as §1

[4] = test system: PAXF 546; details: Pancreas, xenograft PAXF 546, colony formation
Experimental: as §1

[5] = test system: MAXF 583; details: Breast, xenograft MAXF 583, colony formation
Experimental: as §1

[6] = test system: LXFA 629; details: Lung, non small cell, xenograft LXFA 629, colony formation
Experimental: as §1

[7] = test system: CXF 264; details: Colon, xenograft CXF 264, colony formation
Experimental: as §1

[8] = test system: RXF 944LX; details: Kidney, xenograft RXF 944LX
Experimental: as §1

[9] = test system: CEXF 633; details: Cervix, xenograft CEXF 633, colony formation
Experimental: as §1

[10] = test system: RXF 1393; details: Kidney, xenograft RXF 1393, colony formation
Experimental: as §1

[11] = test system: MAXF 857; details: Breast, xenograft MAXF 857, colony formation
Experimental: as §1

[12] = test system: PC3M; details: Prostate, xenograft PC3M
Experimental: as §1

[13] = test system: MAXF 574; details: Breast, xenograft MAXF 574, colony formation
Experimental: as §1

[14] = test system: CXF 158; details: Colon, xenograft CXF 158, colony formation
Experimental: as §1

IC50 [1]: 0.218 µg/mL (≈ 0.545 µM)
IC50 [2]: 0.453 µg/mL (≈ 1.13 µM)
IC50 [3]: 0.442 µg/mL (≈ 1.1 µM)
IC50 [4]: 0.168 µg/mL (≈ 0.42 µM)
IC50 [5]: 0.078 µg/mL (≈ 0.195 µM)
IC50 [6]: 0.808 µg/mL (≈ 2.02 µM)
IC50 [7]: 0.103 µg/mL (≈ 0.257 µM)
IC50 [8]: 0.116 µg/mL (≈ 0.29 µM)
IC50 [9]: 1.310 µg/mL (≈ 3.27 µM)
IC50 [10]: 0.592 µg/mL (≈ 1.48 µM)
IC50 [11]: 1.449 µg/mL (≈ 3.62 µM)
IC50 [12]: 0.419 µg/mL (≈ 1.05 µM)
IC50 [13]: 0.335 µg/mL (≈ 0.837 µM)
IC50 [14]: 0.126 µg/mL (≈ 0.315 µM)
Compound: C[C@@H]1CC(=O)[C@@H](O)[C@]2(O1)O[C@@H]1CC(=O)O[C@@H]1C1=C2C(=O)c2c(O)cccc2C1=O [Compound B, 4'-dehydro-deacetylgriseusin A]
IC70 [1]: 0.425 µg/mL (≈ 1.06 µM)
IC70 [2]: 0.630 µg/mL (≈ 1.57 µM)
IC70 [3]: 0.631 µg/mL (≈ 1.58 µM)
IC70 [4]: 0.420 µg/mL (≈ 1.05 µM)
IC70 [5]: 0.195 µg/mL (≈ 0.487 µM)
IC70 [6]: 1.276 µg/mL (≈ 3.19 µM)
IC70 [7]: 0.215 µg/mL (≈ 0.537 µM)
IC70 [8]: 0.171 µg/mL (≈ 0.427 µM)
IC70 [9]: 1.837 µg/mL (≈ 4.59 µM)
IC70 [10]: 0.769 µg/mL (≈ 1.92 µM)
IC70 [11]: 1.975 µg/mL (≈ 4.93 µM)
IC70 [12]: 0.818 µg/mL (≈ 2.04 µM)
IC70 [13]: 0.523 µg/mL (≈ 1.31 µM)
IC70 [14]: 0.358 µg/mL (≈ 0.894 µM)
